Here are results for eight molecules from US20090238768A1, “MULTIMERIC MAGNETIC RESONANCE CONTRAST AGENTS” (priority 2005, published 2009).

Like-named read-outs stand apart in the source and are kept apart here.

Data set [1] can be described thus: longitudinal relaxivity rl in human blood plasma at 37° C. It counts as physicochemical. The settings on record: for longitudinal relaxivity rl calculated for a field of 3 T: calculated from the measurements at lower fields. The method, then: Compound 23 was dissolved in human blood plasma and the longitudinal relaxivity rl was measured at 37° C. at the following fields:
Compound 13 was dissolved in human blood plasma and the longitudinal relaxivity rl was measured at 37° C. at the following fields:
Compound 36 was dissolved in human blood plasma and the longitudinal relaxivity rl was measured at 37° C. at the following fields:
Compound 40 was dissolved in human blood plasma and the longitudinal relaxivity rl was measured at 37° C. at the following fields:
Compound 43 was dissolved in human blood plasma and the longitudinal relaxivity rl was measured at 37° C. at the following fields:
Compound 46 was dissolved in human blood plasma and the longitudinal relaxivity rl was measured at 37° C. at the following fields: […]

The conditions of data set [2]: 3 T, human blood plasma, 37° C., published data; cited from earlier work.

Turning to `Cc1c(C(=O)N(C)c2cccc(NC(=O)C(C)N3CCN4CCN5CCN(CC3)CC(=O)[O][Gd]([O]C(=O)C5)[O]C(=O)C4)c2)c(C)c(C(=O)N(C)c2cccc(NC(=O)C(C)N3CCN4CCN5CCN(CC3)CC(=O)[O][Gd]([O]C(=O)C5)[O]C(=O)C4)c2)c(C)c1C(=O)N(C)c1cccc(NC(=O)C(C)N2CCN3CCN4CCN(CC2)CC(=O)[O][Gd]([O]C(=O)C4)[O]C(=O)C3)c1` (stereo not shown) [Compound 40], the longitudinal relaxivity rl in data set [1] (0.235 T) worked out at 10.1 mM^1s^1; in data set [1] (0.47 T) it was 8.6 mM^1s^1; in data set [1] (1.41 T) it was 9.1 mM^1s^1. Also, the “longitudinal relaxivity rl calculated for a field of 3 T” value (“longitudinal relaxivity rl calculated” below) in data set [1] (3 T) is 9 mM^1s^1.
Consider “gadolinium derivative of 1,3,5-tris-(N-(DO3A-acetamido)-N-methyl-4-amino-2-methyl-phenyl)-[1,3,5]triazinane-2,4,6-trione [Compound 23]”, for which the longitudinal relaxivity rl in data set [1] (0.25 T) was determined as 10.7 mM⁻¹ s⁻¹; in data set [1] (1.5 T), 11.6 mM^1s^1; in data set [1] (2.35 T), 10.1 mM^1s^1; in data set [1] (3 T), 9.9 mM^1s^1.
Turning to `CNC[C@H](O)[C@@H](O)[C@H](O)[C@H](O)CO.CNC[C@H](O)[C@@H](O)[C@H](O)[C@H](O)CO.O=C([O-])CN(CCN(CC(=O)[O-])CC(=O)O)CCN(CC(=O)[O-])CC(=O)O.[Gd+3]` [Magnevist], the longitudinal relaxivity rl in data set [2] is given as 3.3 mM^1s^1.
As for `CNC[C@H](O)[C@@H](O)[C@H](O)[C@H](O)CO.CNC[C@H](O)[C@@H](O)[C@H](O)[C@H](O)CO.O=C([O-])CN(CCN(CC(=O)[O-])CC(=O)O)CCN(CC(=O)O)C(COCc1ccccc1)C(=O)[O-].[Gd+3]` (stereo not shown) [Multihance], the longitudinal relaxivity rl in data set [2] is 6.3 mM^1s^1.
For the molecule `Cc1c(C(=O)N(C)c2cccc(NC(=O)CN3CCN4CCN5CCN(CC3)CC(=O)[O][Gd]([O]C(=O)C4)[O]C(=O)C5)c2)c(C)c(C(=O)N(C)c2cccc(NC(=O)CN3CCN4CCN5CCN(CC3)CC(=O)[O][Gd]([O]C(=O)C4)[O]C(=O)C5)c2)c(C)c1C(=O)N(C)c1cccc(NC(=O)CN2CCN3CCN4CCN(CC2)CC(=O)[O][Gd]([O]C(=O)C3)[O]C(=O)C4)c1` [Compound 36, gadolinium derivative of 2,4,6-trimethylbenzene-1,3,5-tris-[(DO3A-(3-acetamidophenyl))-N-methyl-carboxamide]], the longitudinal relaxivity rl in data set [1] (0.235 T) was 9.3 mM^1s^1; in data set [1] (0.47 T), 8.8 mM^1s^1; in data set [1] (1.41 T), 7.3 mM^1s^1. The “longitudinal relaxivity rl calculated” value in data set [1] (3 T) was 8.5 mM^1s^1.
For “gadolinium derivative of benzene-1,3,5-tris-[((DO3A-acetamido)-3-(N′-methylamido-phenyl))-carboxamide)] [Compound 13]”, the longitudinal relaxivity rl in data set [1] (1.5 T) was found to be 9.2 mM^1s^1; in data set [1] (2.35 T), 9.5 mM^1s^1. Further, the “longitudinal relaxivity rl calculated” value in data set [1] (3 T) was 9.0 mM^1s^1.
Regarding `Cc1c(C(=O)N(C)c2cccc(N(C)C(=O)C(C)N3CCN4CCN5CCN(CC3)CC(=O)[O][Gd]([O]C(=O)C5)[O]C(=O)C4)c2)c(C)c(C(=O)N(C)c2cccc(N(C)C(=O)C(C)N3CCN4CCN5CCN(CC3)CC(=O)[O][Gd]([O]C(=O)C5)[O]C(=O)C4)c2)c(C)c1C(=O)N(C)c1cccc(N(C)C(=O)C(C)N2CCN3CCN4CCN(CC2)CC(=O)[O][Gd]([O]C(=O)C4)[O]C(=O)C3)c1` (stereo not shown) [Compound 46], the longitudinal relaxivity rl in data set [1] (0.235 T) worked out at 10.9 mM^1s^1; in data set [1] (0.47 T) it was 10.1 mM^1s^1; in data set [1] (1.41 T), 8.9 mM^1s^1. In addition, the “longitudinal relaxivity rl calculated” value in data set [1] (3 T) is on record as 9 mM^1s^1.
Consider “gadolinium derivative of 2,4,6-trimethylbenzene-1,3,5-tris-[N-methyl-((2-DO3A-propyl)-3-(N′-methyl-amidophenyl))-carboxamide)] [Compound 43]”, for which the longitudinal relaxivity rl came to 12 mM^1s^1 in data set [1] (0.235 T), 10.6 mM^1s^1 in data set [1] (0.47 T) and 9 mM^1s^1 in data set [1] (1.41 T). In addition, the “longitudinal relaxivity rl calculated” value in data set [1] (3 T) is 8.2 mM^1s^1.
